For 22 molecules, IC50 results are on record in US20100015141A1, “4-PHENOXY-6-ARYL-1H-PYRAZOLO[3,4-D]PYRIMIDINE AND N-ARYL-6-ARYL-1H-PYRAZOLO[3,4-D]PYRIMIDIN-4-AMINE COMPOUNDS, THEIR USE AS MTOR KINASE AND PI3 KINASE INHIBITORS, AND THEIR SYNTHESES” (Wyeth, priority 2008, published 2010).

Structures are written as SMILES.

For one assay, the target named is PI3K-γ (Homo sapiens, UniProt P48736). Kind of assay: PI3K-gamma fluorescence polarization assay. Type of assay: biochemical. The note with it: 20 μM PIP2, 25 μM ATP. Here is the method: (§1) The reaction buffer was 20 mM HEPES pH7.5, 2 mM MgCl2, 0.05% CHAPS, and 0.01% βME (added fresh). The substrate solution was 40 μM PIP2 (diC8, Echelon, Salt Lake City Utah cat #P-4508, 1 mM in water) and 50 μM ATP in the reaction buffer. Nunc 384-well black polypropylene fluorescent plates were used for PI3K assays. The assay is run by putting 9.5 μl of freshly diluted enzyme in the reaction buffer per well, adding 0.5 μl of diluted drug or DMSO, and mixing. Then 10 μl of the substrate solution is added to each well to start the reaction. A final concentration of 20 μM PIP2 and 25 μM ATP in the reaction was used. Reactions were allowed to proceed for 30-60 minutes at room temperature. After 30-60 minutes, 20 μl of a solution of 10 nM TAMRA detector (Red detector probe-Echelon) and 2.5 uM of GST-murineGRP (1.5 mg/ml in 17% glycerol) was added per well to stop the reaction. The resulting solution was mixed well and allowed to stand for 90-110 minutes before reading plate. Assay Plates were read on Perkin-Elmer Envision plate readers with appropriate filters for Tamra [BODIPY-TMRI(1,3,4,5)P4]. Data obtained were used to calculate enzymatic activity and enzyme inhibition by inhibitor compounds. It is important to keep Red probe solutions dark. This procedure is adapted from Echelon Biosciences Inc procedure for their PI3-Kinase fluorescence polarization activity Assay kit Product number K-1100.
PI3K-γ, sequence (P48736 whole entry, species assumed): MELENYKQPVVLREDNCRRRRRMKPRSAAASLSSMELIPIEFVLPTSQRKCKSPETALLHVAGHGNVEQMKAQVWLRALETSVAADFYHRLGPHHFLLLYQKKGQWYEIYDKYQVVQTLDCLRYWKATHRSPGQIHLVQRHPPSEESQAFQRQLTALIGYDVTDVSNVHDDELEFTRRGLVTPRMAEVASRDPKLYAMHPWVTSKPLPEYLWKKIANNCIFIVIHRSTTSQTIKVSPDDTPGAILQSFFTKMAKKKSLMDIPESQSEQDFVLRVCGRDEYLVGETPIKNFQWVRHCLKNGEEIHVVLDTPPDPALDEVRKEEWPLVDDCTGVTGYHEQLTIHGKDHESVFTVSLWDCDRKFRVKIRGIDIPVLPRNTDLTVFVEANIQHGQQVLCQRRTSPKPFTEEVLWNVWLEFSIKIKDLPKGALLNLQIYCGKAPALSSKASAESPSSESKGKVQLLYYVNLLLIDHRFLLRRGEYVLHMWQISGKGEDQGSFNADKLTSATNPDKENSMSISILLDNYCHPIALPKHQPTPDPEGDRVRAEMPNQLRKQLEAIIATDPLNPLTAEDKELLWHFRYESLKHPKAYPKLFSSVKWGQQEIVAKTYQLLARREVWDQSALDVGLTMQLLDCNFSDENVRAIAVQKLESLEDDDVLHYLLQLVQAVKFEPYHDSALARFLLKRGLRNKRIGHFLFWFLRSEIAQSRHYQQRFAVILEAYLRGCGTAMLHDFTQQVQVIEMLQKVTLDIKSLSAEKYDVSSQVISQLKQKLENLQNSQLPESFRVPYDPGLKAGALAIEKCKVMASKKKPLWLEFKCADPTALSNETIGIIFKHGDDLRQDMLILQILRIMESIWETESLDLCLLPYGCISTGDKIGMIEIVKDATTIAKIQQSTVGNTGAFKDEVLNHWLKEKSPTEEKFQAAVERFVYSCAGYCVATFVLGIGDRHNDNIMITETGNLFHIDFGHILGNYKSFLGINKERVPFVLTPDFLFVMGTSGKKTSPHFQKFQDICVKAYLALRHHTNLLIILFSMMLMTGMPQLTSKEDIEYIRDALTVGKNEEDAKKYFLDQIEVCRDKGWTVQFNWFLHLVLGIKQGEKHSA
A general note: Fluorescence polarisation rises when a labelled molecule tumbles more slowly, as on binding a larger partner.

Another assay deals with PI3K-α (Homo sapiens, UniProt P42336). Kind of assay: PI3K-alpha fluorescence polarization assay. Type of assay: biochemical. The note with it: 20 μM PIP2, 25 μM ATP. How it is done:
as §1

PI3K-α, sequence (P42336 whole entry, species assumed): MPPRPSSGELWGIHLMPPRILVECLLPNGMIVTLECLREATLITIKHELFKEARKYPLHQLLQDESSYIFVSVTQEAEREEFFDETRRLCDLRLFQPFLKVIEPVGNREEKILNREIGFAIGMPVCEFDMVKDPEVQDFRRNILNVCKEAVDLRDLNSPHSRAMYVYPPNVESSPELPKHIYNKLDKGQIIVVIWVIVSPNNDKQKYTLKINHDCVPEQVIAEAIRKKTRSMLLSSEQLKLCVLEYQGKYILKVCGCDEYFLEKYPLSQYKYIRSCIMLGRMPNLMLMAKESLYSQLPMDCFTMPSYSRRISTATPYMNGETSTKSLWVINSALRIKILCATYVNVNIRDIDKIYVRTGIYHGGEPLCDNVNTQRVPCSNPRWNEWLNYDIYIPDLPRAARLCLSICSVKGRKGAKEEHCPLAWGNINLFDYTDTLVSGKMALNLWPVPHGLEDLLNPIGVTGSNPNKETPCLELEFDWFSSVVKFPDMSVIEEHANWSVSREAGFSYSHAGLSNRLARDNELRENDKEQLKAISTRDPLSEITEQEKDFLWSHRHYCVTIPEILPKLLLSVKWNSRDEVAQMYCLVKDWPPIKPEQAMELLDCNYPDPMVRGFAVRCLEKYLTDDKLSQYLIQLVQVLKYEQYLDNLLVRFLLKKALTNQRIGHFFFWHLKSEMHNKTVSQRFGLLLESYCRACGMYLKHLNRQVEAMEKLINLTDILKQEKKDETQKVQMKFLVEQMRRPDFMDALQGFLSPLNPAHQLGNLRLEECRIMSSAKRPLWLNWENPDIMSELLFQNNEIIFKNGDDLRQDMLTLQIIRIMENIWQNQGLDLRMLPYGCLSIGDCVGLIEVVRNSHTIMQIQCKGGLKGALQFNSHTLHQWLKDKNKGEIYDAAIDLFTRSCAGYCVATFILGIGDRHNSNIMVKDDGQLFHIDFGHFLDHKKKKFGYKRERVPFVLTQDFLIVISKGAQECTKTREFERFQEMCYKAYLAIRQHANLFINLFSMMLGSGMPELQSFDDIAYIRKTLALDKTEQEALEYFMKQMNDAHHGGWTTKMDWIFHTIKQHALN
PI3K-α, sequence (P27986 whole entry partner, species assumed): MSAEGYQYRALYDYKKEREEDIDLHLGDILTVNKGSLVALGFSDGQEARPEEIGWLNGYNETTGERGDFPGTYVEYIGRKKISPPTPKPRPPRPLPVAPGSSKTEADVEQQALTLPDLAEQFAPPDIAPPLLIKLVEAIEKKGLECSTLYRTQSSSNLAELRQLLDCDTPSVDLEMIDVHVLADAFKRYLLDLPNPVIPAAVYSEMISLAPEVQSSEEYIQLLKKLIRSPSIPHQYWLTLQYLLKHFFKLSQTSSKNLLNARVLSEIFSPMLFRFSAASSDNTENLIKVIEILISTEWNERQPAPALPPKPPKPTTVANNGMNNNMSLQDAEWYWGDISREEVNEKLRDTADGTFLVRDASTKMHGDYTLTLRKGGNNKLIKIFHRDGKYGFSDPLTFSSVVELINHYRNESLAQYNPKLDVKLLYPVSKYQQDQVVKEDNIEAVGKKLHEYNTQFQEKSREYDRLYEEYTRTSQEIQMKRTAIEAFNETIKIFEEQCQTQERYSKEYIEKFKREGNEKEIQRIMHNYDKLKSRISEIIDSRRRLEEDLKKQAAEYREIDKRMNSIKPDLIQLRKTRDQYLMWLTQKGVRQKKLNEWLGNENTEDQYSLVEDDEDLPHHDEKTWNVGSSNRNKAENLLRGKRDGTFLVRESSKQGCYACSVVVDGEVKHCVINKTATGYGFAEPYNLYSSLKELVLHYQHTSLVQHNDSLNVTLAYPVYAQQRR

Regarding `NC(=O)c1ccc(Nc2nc(-c3ccccc3)nc3c2cnn3C2CCN(Cc3ccccc3)CC2)cc1` [Example 1, 4-{[1-(1-benzylpiperidin-4-yl)-6-phenyl-1H-pyrazolo[3,4-d]pyrimidin-4-yl]amino}benzamide], the figures for the IC50 at PI3K-γ and on PI3K-α were 7 µM and 6.11 µM, respectively.

Consider `COc1ccc(Nc2nc(-c3ccccc3)nc3c2cnn3C2CCN(Cc3ccccc3)CC2)cc1OC` [Example 2, 1-(1-benzylpiperidin-4-yl)-N-(3,4-dimethoxyphenyl)-6-phenyl-1H-pyrazolo[3,4-d]pyrimidin-4-amine], for which the IC50 (as a rule, the concentration needed to halve the response being measured) against PI3K-γ is 5.1 µM; against PI3K-α it was above 10 µM.

In the case of `NC(=O)c1cccc(Nc2nc(-c3ccccc3)nc3c2cnn3C2CCN(Cc3ccccc3)CC2)c1` [Example 3, 3-{[1-(1-benzylpiperidin-4-yl)-6-phenyl-1H-pyrazolo[3,4-d]pyrimidin-4-yl]amino}benzamide], the figures for the IC50 at PI3K-γ and against PI3K-α were 5.02 µM and 7.28 µM, respectively.

Turning to `c1ccc(CN2CCC(n3ncc4c(Nc5ccc6[nH]ccc6c5)nc(-c5ccccc5)nc43)CC2)cc1` [Example 4, 1-(1-benzylpiperidin-4-yl)-N-1H-indol-5-yl-6-phenyl-1H-pyrazolo[3,4-d]pyrimidin-4-amine], the IC50 against PI3K-γ was 10.1 µM; against PI3K-α, above 10 µM.

With `CC(=O)Nc1cccc(Nc2nc(-c3ccccc3)nc3c2cnn3C2CCN(Cc3ccccc3)CC2)c1` [Example 5, N-(3-{[1-(1-benzylpiperidin-4-yl)-6-phenyl-1H-pyrazolo[3,4-d]pyrimidin-4-yl]amino}phenyl)acetamide], the IC50 against PI3K-γ turned out to be 7 µM; at PI3K-α, 8.31 µM.

Turning to `NC(=O)c1ccc(Nc2nc(-c3cccc(O)c3)nc3c2cnn3C2CCN(Cc3ccccc3)CC2)cc1` [Example 6, 4-{[1-(1-benzylpiperidin-4-yl)-6-(3-hydroxyphenyl)-1H-pyrazolo[3,4-d]pyrimidin-4-yl]amino}benzamide], the IC50 against PI3K-γ was 7 µM; at PI3K-α, 3.5 µM.

On to `COc1ccc(Nc2nc(-c3cccc(O)c3)nc3c2cnn3C2CCN(Cc3ccccc3)CC2)cc1OC` [Example 7, 3-{1-(1-benzylpiperidin-4-yl)-4-[(3,4-dimethoxyphenyl)amino]-1H-pyrazolo[3,4-d]pyrimidin-6-yl}phenol], for which the half-maximal inhibitory concentration (IC50) is 5.92 µM against PI3K-γ and above 10 µM on PI3K-α.

Turning to `NC(=O)c1cccc(Nc2nc(-c3cccc(O)c3)nc3c2cnn3C2CCN(Cc3ccccc3)CC2)c1` [Example 8, 3-{[1-(1-benzylpiperidin-4-yl)-6-(3-hydroxyphenyl)-1H-pyrazolo[3,4-d]pyrimidin-4-yl]amino}benzamide], the IC50 at PI3K-γ was determined as 7 µM; at PI3K-α, 6.03 µM.

Take `Oc1cccc(-c2nc(Nc3ccc4[nH]ccc4c3)c3cnn(C4CCN(Cc5ccccc5)CC4)c3n2)c1` [Example 9, 3-[1-(1-benzylpiperidin-4-yl)-4-(1H-indol-5-ylamino)-1H-pyrazolo[3,4-d]pyrimidin-6-yl]phenol]: the IC50 was 13.1 µM against PI3K-γ and above 10 µM against PI3K-α.

As for `CC(=O)Nc1cccc(Nc2nc(-c3cccc(O)c3)nc3c2cnn3C2CCN(Cc3ccccc3)CC2)c1` [Example 10, N-(3-{[1-(1-benzylpiperidin-4-yl)-6-(3-hydroxyphenyl)-1H-pyrazolo[3,4-d]pyrimidin-4-yl]amino}phenyl)acetamide], the IC50 against PI3K-γ was found to be 4.66 µM; on PI3K-α it was 6.18 µM.

In the case of `COc1ccc(Nc2nc(-c3ccccc3)nc3c2cnn3C2CCNCC2)cc1OC` [Example 13, N-(3,4-dimethoxyphenyl)-6-phenyl-1-piperidin-4-yl-1H-pyrazolo[3,4-d]pyrimidin-4-amine], the IC50 was 7.7 µM against PI3K-γ and above 10 µM against PI3K-α.

Turning to `CC(=O)Nc1cccc(Nc2nc(-c3ccccc3)nc3c2cnn3C2CCNCC2)c1` [Example 15, N-{3-[(6-phenyl-1-piperidin-4-yl-1H-pyrazolo[3,4-d]pyrimidin-4-yl)amino]phenyl}acetamide], the values for the IC50 on PI3K-γ and against PI3K-α were 8.3 µM and above 10 µM, respectively.

Take `COc1ccc(Nc2nc(-c3cccc(O)c3)nc3c2cnn3C2CCNCC2)cc1OC` [Example 17, 3-{4[(3,4-dimethoxyphenyl)amino]-1-piperidin-4-yl-1H-pyrazolo[3,4-d]pyrimidin-6-yl}phenol]: the IC50 on PI3K-γ was 5.84 µM; on PI3K-α it was above 10 µM.

On to `NC(=O)c1cccc(Nc2nc(-c3cccc(O)c3)nc3c2cnn3C2CCNCC2)c1` [Example 18, 3-{[6-(3-hydroxyphenyl)-1-piperidin-4-yl-1H-pyrazolo[3,4-d]pyrimidin-4-yl]amino}benzamide], for which the figures for the IC50 against PI3K-γ and against PI3K-α were 9.72 µM and above 10 µM, respectively.

`Oc1cccc(-c2nc(Nc3ccc4[nH]ccc4c3)c3cnn(C4CCNCC4)c3n2)c1` [Example 19, 3-[4-(1H-indol-5-ylamino)-1-piperidin-4-yl-1H-pyrazolo[3,4-d]pyrimidin-6-yl]phenol]: the IC50 is 5.93 µM on PI3K-γ and above 10 µM against PI3K-α.

For `NC(=O)c1ccc(Nc2nc(-c3cccc([N+](=O)[O-])c3)nc3c2cnn3C2CCN(Cc3ccccc3)CC2)cc1` [Example 21, 4-{[1-(1-benzylpiperidin-4-yl)-6-(3-nitrophenyl)-1H-pyrazolo[3,4-d]pyrimidin-4-yl]amino}benzamide], the IC50 at PI3K-γ stood at 2.46 µM; on PI3K-α it was 2.81 µM.

On to `COc1cccc(-c2nc(Nc3ccc(C(N)=O)cc3)c3cnn(C4CCN(Cc5ccccc5)CC4)c3n2)c1` [Example 23, 4-{[1-(1-benzylpiperidin-4-yl)-6-(3-methoxyphenyl)-1H-pyrazolo[3,4-d]pyrimidin-4-yl]amino}benzamide], for which the results for the IC50 at PI3K-γ and against PI3K-α were 2.75 µM and 2.65 µM, respectively.

Regarding `NC(=O)c1ccc(Nc2nc(-c3ccc(O)cc3)nc3c2cnn3C2CCN(Cc3ccccc3)CC2)cc1` [Example 24, 4-{[1-(1-benzylpiperidin-4-yl)-6-(4-hydroxyphenyl)-1H-pyrazolo[3,4-d]pyrimidin-4-yl]amino}benzamide], the IC50 is 5.25 µM against PI3K-γ and 5.45 µM at PI3K-α.

For the molecule `NC(=O)c1ccc(Nc2nc(-c3cccc(C(F)(F)F)c3)nc3c2cnn3C2CCN(Cc3ccccc3)CC2)cc1` [Example 25, 4-({1-(1-benzylpiperidin-4-yl)-6-[3-(trifluoromethyl)phenyl]-1H-pyrazolo[3,4-d]pyrimidin-4-yl}amino)benzamide], the IC50 on PI3K-γ stood at 2.25 µM; against PI3K-α it was 3.43 µM.

Take `NC(=O)c1ccc(Nc2nc(-c3ccccc3O)nc3c2cnn3C2CCN(Cc3ccccc3)CC2)cc1` [Example 26, 4-{[1-(1-benzylpiperidin-4-yl)-6-(2-hydroxyphenyl)-1H-pyrazolo[3,4-d]pyrimidin-4-yl]amino}benzamide]: the figures for the IC50 against PI3K-γ and against PI3K-α were 4 µM and 2.25 µM, respectively.

For `COc1ccc(Nc2nc(-c3ccc(O)cc3)nc3c2cnn3C2CCN(Cc3ccccc3)CC2)cc1OC` [Example 30, 4-{1-(1-benzylpiperidin-4-yl)-4-[(3,4-dimethoxyphenyl)amino]-1H-pyrazolo[3,4-d]pyrimidin-6-yl}phenol], the figures for the IC50 against PI3K-γ and against PI3K-α were 3.32 µM and above 5.94 µM, respectively.

Molecule `COc1ccc(N(C)c2nc(-c3ccccc3)nc3c2cnn3C)cc1OC` [Example 36, N-(3,4-dimethoxyphenyl)-N,1-dimethyl-6-phenyl-1H-pyrazolo[3,4-d]pyrimidin-4-amine] showed a half-maximal inhibitory concentration (IC50) against PI3K-α above 9.75 µM.
